Test: Human HepG2 cell viability assay in 384 well format
Assay type: toxicity, cell-based
Set-up: dose 125 nL, time 70.5 hour; concentration not given beside the values
Settings: HepG2 cells, read-out: Inhibition

SMILES	cytotoxicity at 70.5 h [%]
O=C(c1ccc(O)nc1)N1CCN(C(=O)c2ccc(F)c(F)c2)CC1	-2.92
CN(Cc1cccc(F)c1)C(=O)CS(=O)(=O)Cc1c(Cl)cccc1Cl	5.76
COc1ccc(C2CCCCCN2Cc2nnc(C)o2)cc1 (stereo unspecified)	-3.01
COc1ccccc1N1CCC(CNS(=O)(=O)c2c(C)nn(C)c2C)C1 (stereo unspecified)	2.25
Cc1nc(C)c(CC(=O)N2CCC(Oc3ccccc3)CC2)c(=O)[nH]1	-7.9
CC(C)c1nn(C)c(N(C)C)c1CNC1CCC(O)CC1 (stereo unspecified)	-6.96
O=C(COC1CCCC1)NC(C(=O)Nc1cc[nH]n1)c1ccccc1 (stereo unspecified)	3.78
c1cc(CN2CCN(Cc3ccon3)C3(CCCCC3)C2)no1	4.47
O=C(NCCC1Cc2ccccc2C1)N1CCCC(O)C1 (stereo unspecified)	26.4
CN(C)c1cccc(C2CCCN2CCCN2CCOC2=O)c1 (stereo unspecified)	7.84
COc1cc(C)c(CNC(C)c2nc(C)cs2)cc1OC (stereo unspecified)	-2.23
CC(c1ccccc1Cl)N1CCN(C(=O)c2ccc(=O)[nH]c2)CC1 (stereo unspecified)	2
CCN(C)CC1CCN(C(=O)NCCC2Cc3ccccc3C2)C1 (stereo unspecified)	-6.72
Cc1nnc(CN2CCCC2c2ccc(C(C)(C)C)cc2)o1 (stereo unspecified)	-3.63
Cc1nnc(CN2CCCC2c2ccsc2)o1 (stereo unspecified)	-4.6
N#Cc1cc(Cl)ccc1N1CCN(C(=O)C2CCC2)CC1	-1.06
CNC(=O)c1cccc(NC(=O)CN2CCCN(S(C)(=O)=O)CC2)c1	-5.6
CC(C)(NC(=O)c1ccc(-c2ccc(F)cc2)s1)C(N)=O	4.62
CCOCCCC(=O)Nc1cccnc1-n1ccnc1C	-6.87
O=C(NCc1ccccc1F)N1CCC(C2OCCO2)CC1	-7.09
COc1ccc(CC(=O)N2CCCN(c3ccc(C#N)cc3)CC2)cc1	-2.17
COc1cccc(N2CCN(CCC(=O)NC3CCCC3)CC2)c1	-5.97
Cc1nc(CC(=O)N2CCCN(c3ccc(C#N)cc3)CC2)cs1	-8.68

SMILES	cytotoxicity at 70.5 h [%]
Cc1noc(C(C)C)c1C(=O)NS(=O)(=O)c1ccc(Cl)cc1	-3.31
CN(C(=O)Cc1ccc(NC(=O)NC2CCC2)cc1)c1ccccc1	38.2
CC(C)(O)CN1CCN(C(=O)c2cc3ccccc3c(=O)[nH]2)CC1	-3.18
CCc1nccn1C1CCCN(C(=O)c2cn3c(C)cccc3n2)C1 (stereo unspecified)	-3.89
O=C(Cc1ccc2c(c1)CCO2)N1CCCCC1Cn1cccn1 (stereo unspecified)	-2.84
COCCN(C)C(=O)Nc1ccc2c(ccn2CCOC)c1	32.1
CCCn1ccc2ccc(NC(=O)N(C)CCOC)cc21	-1.44
CC(=O)NC(C)c1ccc(OCC2CC2)c(F)c1 (stereo unspecified)	-6.57
COCC(=O)N(C)Cc1ccc(Cl)c(Cl)c1	-12.6
COCCn1ccc(NC(=O)Nc2cccnc2)n1	-2.62
COc1ccc(CC(=O)N2CCCCC2Cn2cccn2)cc1OC (stereo unspecified)	-2.2
CN(Cc1nccn1CC(F)(F)F)C(=O)c1cccc(C#N)c1	-7.89
Cc1noc(C(C)C)c1C(=O)NS(=O)(=O)c1ccc2c(c1)OCCCO2	-9.35
Cc1noc(Cl)c1CCC(=O)N1CCCCC1Cn1cccn1 (stereo unspecified)	1.4
Cc1cnn(C2CCCN(C(=O)c3cc(C)sc3C)C2)c1 (stereo unspecified)	-2.62
Cc1cc(C)n(CCCNC(=O)C(C)NC(=O)c2ccccc2Cl)n1 (stereo unspecified)	-8.83
CN(Cc1cnn(C)c1)C(=O)Cn1c(CS(C)(=O)=O)nc2ccccc21	-12.9
CCc1noc(C(C)N2CCN(c3ccc(C#N)cn3)CC2)n1 (stereo unspecified)	-2.7
Cc1nc(C2(NCC(=O)NCCc3cccs3)CCCC2)no1	-9.55
Cc1cc(C)n(CC(C)CNC(=O)[C@@H](C)NC(=O)OC(C)(C)C)n1 (stereo partly specified)	-27.5
COc1ccc(CCN2CCN(C(=O)c3scnc3C)CC2)cc1	-5.8
O=C(NCCCNC(=O)c1cccc(O)c1)Nc1ccc(F)cc1F	-2.92
Cc1nn(C)c(Cl)c1CNCc1cccnc1N1CCN(C)CC1	2.87

From ChEMBL document CHEMBL3507680, “University of Dundee, Gates Library screen for HepG2 cell viability”
